In PubChem BioAssay (NCI):
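Assay format: 96-well plates, 48-hour exposure. TGI marks complete inhibition of growth.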

Tests used:
Test in all cases: NCI anticancer screen, dose series, 48 h
UACC-62 melanoma = system: UACC-62 melanoma
KM12 colon = system: KM12 colon
MOLT-4 leukemia = system: MOLT-4 leukemia
NCI-H226 lung = system: NCI-H226 lung
U251 CNS = system: U251 CNS
SK-MEL-5 melanoma = system: SK-MEL-5 melanoma
NCI/ADR-RES ovarian = system: NCI/ADR-RES ovarian
SR leukemia = system: SR leukemia
SF-268 CNS = system: SF-268 CNS
NCI-H460 lung = system: NCI-H460 lung
A549 NSCLC = system: A549 NSCLC
BT-549 breast = system: BT-549 breast
SK-MEL-28 melanoma = system: SK-MEL-28 melanoma
PC-3 prostate = system: PC-3 prostate
SK-OV-3 ovarian = system: SK-OV-3 ovarian
UO-31 renal = system: UO-31 renal
OVCAR-4 ovarian = system: OVCAR-4 ovarian
HL-60(TB) leukemia = system: HL-60(TB) leukemia
MDA-N = system: MDA-N

| Structure (SMILES) | TGI (UACC-62 melanoma) [µM] | TGI (KM12 colon) [µM] | TGI (MOLT-4 leukemia) [µM] | TGI (NCI-H226 lung) [µM] | TGI (U251 CNS) [µM] | TGI (SK-MEL-5 melanoma) [µM] | TGI (NCI/ADR-RES ovarian) [µM] | TGI (SR leukemia) [µM] | TGI (SF-268 CNS) [µM] | TGI (NCI-H460 lung) [µM] | TGI (A549 NSCLC) [µM] | TGI (BT-549 breast) [µM] | TGI (SK-MEL-28 melanoma) [µM] | TGI (PC-3 prostate) [µM] | TGI (SK-OV-3 ovarian) [µM] | TGI (UO-31 renal) [µM] | TGI (OVCAR-4 ovarian) [µM] | TGI (HL-60(TB) leukemia) [µM] | TGI (MDA-N) [µM] |
| --- | --- | --- | --- | --- | --- | --- | --- | --- | --- | --- | --- | --- | --- | --- | --- | --- | --- | --- | --- |
| Cc1c(O)c(OC2OC(CO)C(O)C(O)C2O)cc2c1CC[C@@H]1C2(C)C(=O)C[C@]2(C)[C@@H]([C@@](C)(O)C3CCC(C)(C)O3)[C@H](O)C[C@@]12C (stereo not given in full) | > 100 | > 100 | > 100 | > 100 | > 100 | > 100 | > 100 | > 100 | > 100 | > 100 | > 100 | > 100 | > 100 | > 100 | > 100 | > 100 | > 100 |  |  |
| CCOC(=O)/C(=C\NC(C)(C)C)c1nc2ccccc2[nH]1 | 30.1 | 44.1 |  | 47 |  | 25.5 | 92.1 | 28.3 | 55.9 | 37.3 | > 100 | 68.3 | 34.6 |  | 78.8 | 41.3 | 59.6 | 34 | 52.8 |
| C=C1[C@H]2O[C@H]2[C@@H](OC(C)=O)[C@@]2(C)[C@@H](OC(C)=O)C[C@@H](OC(=O)CCC)[C@@](C)(O)[C@@H]2[C@@H](OC(C)=O)[C@]2(O)[C@@H](C)C(=O)O[C@H]2[C@H]1Cl | > 100 | > 100 | > 100 | 0.818 | > 100 | > 100 | > 100 |  | > 100 | > 100 | > 100 | > 100 | > 100 | > 100 |  | > 100 | > 100 | > 100 | > 100 |
| CC(C)(C)C1CCC2c3c([nH]c4ncccc34)C3C(=O)N(c4ccccc4)C(=O)C3C2C1 (stereo not given) | > 100 | > 100 | > 100 | > 100 | > 100 | > 100 |  | > 100 | > 100 | > 100 | > 100 |  | > 100 |  | > 100 | > 100 | > 100 | > 100 |  |
| O=C(O)[C@@H]1OCCOCCO[C@@H](C(=O)O)[C@H](C(=O)O)OCCOCCO[C@H]1C(=O)O | > 100 | > 100 | > 100 | > 100 | > 86.9 | > 100 |  | 40 | > 100 | > 100 | > 100 |  | > 100 |  | > 100 | > 100 | > 100 | 38.4 |  |
| C/C(=N\NC(=O)C[N+](C)(C)C)c1sc(-c2cccnc2)nc1C | > 100 | > 100 | > 100 | > 100 | > 100 | > 100 |  |  | > 100 | > 100 | > 100 |  | > 100 |  | > 100 | > 100 |  | > 100 |  |
| [N-]=[N+]=NC1(c2ccccc2)C(=O)C(Cl)=C(c2ccccc2)N(c2ccccc2)C1=O (stereo not given) | > 100 | > 100 | > 100 |  | > 100 | > 100 |  | > 100 | > 100 | > 100 | > 100 |  | > 100 |  | 78.6 | > 100 | > 100 | > 100 |  |
| Cc1ccc(S(=O)(=O)NC(=O)Nc2cccc(S(N)(=O)=O)c2)cc1 | > 100 | > 100 | > 100 | > 100 | > 100 | > 100 | > 100 | > 100 | > 100 | > 100 | > 100 |  | > 100 | > 100 | > 100 | > 100 | > 100 | > 100 |  |
| O=C1N2Cc3c4ccc5c3CN3C(=O)N6Cc7c(ccc(c7CN1C6(c1ccccc1)C23c1ccccc1)OCCOCCOc1cc(Br)c(Br)cc1OCCOCCO4)OCCOCCOc1cc(Br)c(Br)cc1OCCOCCO5 (stereo not given) | > 100 | > 100 | > 100 | > 100 | > 100 | > 100 |  | > 100 | > 100 | > 100 | > 100 |  | > 100 |  | > 100 | > 100 | > 100 |  |  |
| COC(=O)C1CCC(=O)N1CN(C(C)=O)c1cc(OC)ccc1OC (stereo not given) | > 100 | > 100 | > 100 | > 100 | > 100 | > 100 | > 100 | > 100 | > 100 | > 100 | > 100 |  | > 100 | > 100 | > 100 | > 100 | > 100 | > 100 | > 100 |
| O=C1C2=Cc3ccccc3OC2(O)Oc2ccccc21 (stereo not given) | > 100 | > 100 | > 100 | > 100 | > 100 | > 100 | > 100 | > 100 | > 100 |  | > 100 |  | > 100 | > 100 | > 100 |  | > 100 |  | > 100 |
| CCC(=O)NI1OC(=O)c2ccccc21 | > 100 | > 100 | > 100 | > 100 | > 100 | > 100 | > 100 | > 100 | > 100 | > 100 | > 100 | > 100 | > 100 | > 100 | > 100 | > 100 | > 100 | > 100 |  |
| O=C1c2c(ccc3c2CCC3)CC1Cc1ccc2c(c1)CCC2 (stereo not given) | 42.7 | > 100 | 51.6 | > 100 | > 100 | 27.9 | > 100 | 30.9 | > 100 | > 100 | > 100 | > 100 | > 100 |  | > 100 | > 100 | 85.4 | 21.7 | > 100 |
| CCOC(=O)C(C)Sc1nnc(COc2ccc(Cl)cc2)n1-c1ccccc1 (stereo not given) | 31.8 | 41.9 |  | 46.9 | 35.1 | 35.8 |  |  | 34.7 | 31.6 | > 100 |  | 49.2 |  | > 100 | 28 | 42.6 | 39.7 |  |
